# Experimental data published in patent publication US6669951B2, “Compositions and methods for enhancing drug delivery across and into epithelial tissues” (CellGate, Inc., priority 1999, dated 2003).
# Read-outs that look alike come from different tables or passages of the source. Square brackets hold non-standard residues; d marks the D form. Peptide text beside a SMILES is read from it. * marks the point of attachment. FITC = O=C1OC2(c3ccc(O)cc3Oc3cc(O)ccc32)c2ccc(NC(=S)*)cc21; Ahx = NCCCCCC(=O)O
# Assays:
# Jurkat cells [1] = experiment: Cellular uptake kinetics assay (Michaelis-Menton); type: cell-based, human; parameters: Vmax: unit not given here
# Method: (§1) The accuracy of this method for determining concentration was established by weighing selected samples and dissolving them in a known amount of PBS buffer. The concentrations determined by UV spectroscopy correlated with the amounts weighed out manually. Jurkat cells (human T cell line), murine B cells (CH27), or human PBL cells were grown in 10% fetal calf serum and DMEM and each of these were used for cellular uptake experiments. […] The microtiter plates were centrifuged and the cells were isolated, washed with cold PBS (3×250 μL), incubated with 0.05% trypsin/0.53 mM EDTA at 37° C. for 5 min, washed with cold PBS, and resuspended in PBS containing 0.1% propidium iodide. The cells were analyzed using fluorescent flow cytometry (FACScan, Becton Dickinson) and cells staining with propidium iodide were excluded from the analysis. The data presented is the mean fluorescent signal for the 5000 cells collected.
# Cellular Uptake Kinetics Assay. The assays were performed as previously described except the cells were incubated for 0.5, 1, 2, and 4 min at 4° C. in triplicate in 2% FCS/PBS (50 μl) in microtiter plates (96 well). The reactions were quenched by diluting the samples into 2% FCS/PBS (5 mL). The assays were then worked up and analyzed by fluorescent flow cytometry as previously described.
# The rates of cellular uptake were determined after incubation (3° C.) of the peptides in Jurkat cells for 30, 60, 120, and 240 seconds (Table 1).
# Jurkat cells [2] = experiment: FACS cellular uptake assay; type: cell-based, human; settings: 4 min, 23° C.
# Method: as §1
# Inhibition of Cellular Uptake with Sodium Azide. The assays were performed as previously described with the exception that the cells used were preincubated for 30 min with 0.5% sodium azide in 2% FCS/PBS buffer prior to the addition of fluorescent peptides and the cells were washed with 0.5% sodium azide in PBS buffer. All of the cellular uptake assays were run in parallel in the presence and absence of sodium azide.
# To determine the structural requirements for the cellular uptake of short arginine-rich peptides, a series of fluorescently-labeled truncated analogues of Tat49-57 were synthesized using standard solid-phase chemistry. See, e.g., Atherton, E. et al. SOLID-PHASE PEPTIDE […] (IRL: Oxford, Engl. 1989). A fluorescein moiety was attached via an aminohexanoic acid spacer on the amino termini. The ability of these fluorescently labeled peptides to enter Jurkat cells was then analyzed using fluorescent activated cell sorting (FACS). The peptide constructs tested were Tat49-57 (Fl-ahx-[…]; SEQ ID NO:8): Tat49-56 (Fl-ahx-[…]; SEQ ID NO:9), Tat49-55 (Fl-ahx-RKKRRQR; SEQ ID NO: 10), Tat50-57 (Fl-ahx-[…]; SEQ ID NO: 11), and Tat51-57 (Fl-ahx-KRRQRRR; SEQ ID NO: 12). Differentiation between cell surface binding and internalization was accomplished throughout by running a parallel set of assays in the presence and absence of sodium azide. Because sodium azide inhibits energy-dependent cellular uptake but not cell surface binding, the difference in fluorescence between the two assays provided the amount of fluorescence resulting from internalization.
# Caco-2 cells = experiment: Cellular uptake in Caco-2 cells; type: cell-based, human; settings: five minutes; for uptake into Caco-2 cells in suspension (flow cytometry): 50-0.8 μM
# Method: To analyze the penetration of fluorescent oligomers of D-arginine into the cells when in suspension, the monolayers were treated with trypsin (4.5 ml of a 0.05% solution Gibco, Grand Rapids, Mich.) and the individual cell suspension was spun down.
# To analyze the ability of the fluorescent peptides to enter Caco-2 cells when part of a monolayer, the cells were seeded in lab-tek flaskette microscope slides (Nalge Nunc Int., Naperville, Ill.) in 4 ml at a density of 60,000 cells/ml and grown for 21 days with the media being changed every other day. […] The monolayer was subsequently washed with PBS/2% FBS twice to remove labeled peptide and analyzed using fluorescent microscopy.
# Varying concentrations of the taxol conjugates (50-0.08 μM) were added to the apical side and exposed to the monolayer of Caco-2 cells for three minutes. The membrane was removed from the apparatus, the cells trypsinized, and the resulting cell suspension was analyzed by flow cytometry (FIG. 33).
# [3] = Half-life / release of conjugate in buffer; type: physicochemical
# skin of nude mice = experiment: Penetration of biotinylated conjugates into skin of nude mice (streptavidin staining); settings: for penetration into skin (streptavidin staining): mouse, in vivo; for penetration of drug conjugates into skin: 1 mM-100 μM in PBS, nude mice, thirty, sixty, 120 minutes
# Method: Samples (100 μl) were applied as a liquid without excipient, prevented from dispersing by a Vaseline™ barrier, and allowed to penetrate for fifteen minutes. At the end of this period the animal was sacrificed, the relevant sections of skin were excised, embedded in mounting medium (OCT), and frozen. Frozen sections (5 microns) were cut using a cryostat, collected on slides, and stained with fluorescently labeled streptavidin (Vector Laboratories, Burlingame, Calif.). The slides were fixed in acetone at 4° C. for ten minutes, air dried, soaked in PBS for five minutes, blocked with normal goat serum for five minutes, and washed with PBS for five minutes. The section was stained by incubation with fluorescently labeled streptavidin at 30 μg/ml for thirty minutes, washed with PBS, counterstained with propidium iodide (1 μg/ml) for two minutes, and the section was mounted with Vectashield™ mounting media. Slides were analyzed by fluorescent microscopy. Parallel studies were done using streptavidin-horse radish peroxidase rather than fluorescein-streptavidin. The biotinylated peptide was visualized by treatment of the sections with the horseradish peroxidase substrate diaminobenzadine, and visualization with light microscopy.
# Alternatively, sample (100 μl) was applied as a liquid without excipient and prevented from evaporating by wrapping plastic wrap over the sample sealed with Vaseline™. […] At the end of this period animal was sacrificed, the relevant section of skin was excised, embedded in mounting medium (OCT) and frozen. […] Slides were analyzed by fluorescent microscopy.
# At the end of this period animal was sacrificed, the relevant section of skin was excised, embedded in mounting medium (OCT) and frozen. […] Slides were analyzed by fluorescent microscopy
# (§2) At the end of this period animal was sacrificed, the relevant section of skin was excised, embedded in mounting medium (OCT) and frozen. […] Slides were analyzed by fluorescent microscopy.
# as §2
# skin of Balb/C mice = settings: mouse, in vivo
# Method: Slides were analyzed by fluorescent microscopy.
# [4] = system: human skin grafts on SCID mice; settings: in vivo
# Method: Samples (100 μl) were applied as a liquid within excipient and prevented from dispersing by a Vaseline™ barrier and allowed to penetrate for fifteen minutes. At the end of this period animal was sacrificed, the relevant section of skin was excised, embedded in mounting medium (OCT) and frozen. […] Slides were analyzed by fluorescent microscopy.
# [5] = Jurkat cells, incubation 30, 60, 120, 240 seconds, 3° C.
compound,measurement,setting,value
N=C(N)NCCC[C@@H](NC(=O)[C@@H](CCCNC(=N)N)NC(=O)[C@@H](CCCNC(=N)N)NC(=O)[C@@H](CCCNC(=N)N)NC(=O)[C@@H](CCCNC(=N)N)NC(=O)[C@@H](CCCNC(=N)N)NC(=O)[C@@H](CCCNC(=N)N)NC(=O)[C@@H](CCCNC(=N)N)NC(=O)[C@@H](CCCNC(=N)N)NC(=O)CCCCCNC(=S)Nc1ccc2c(c1)C(=O)OC21c2ccc(O)cc2Oc2cc(O)ccc21)C(N)=O [r9],Km values fold greater / fold better than Tat49-57,Jurkat cells [1]; Discussion,100 fold
same,Km,Jurkat cells [1]; [5],7.6 µM
same,Vmax,Jurkat cells [1]; [5],0.38
same,"rate of entering cells, fold faster than Tat47-59","Jurkat cells [1]; from Km values, Jurkat cells",approximately 100 fold
same,cellular uptake compared with d-arginine oligomers / other peptoids,Jurkat cells [2],comparable to N-btg9
same,relative order of cellular uptake,Jurkat cells [2]; peptoids and d-arginine oligomers,N-hxg9 (6 methylene)>N-btg9 (4 methylene)>r9 (3 methylene)>N-arg9 (3 methylene)>N-etg9 (2 methylene)
same,uptake into Caco-2 monolayer on microscope slide,"Caco-2 cells; 50 μM, fluorescent microscopy",virtually every cell in the monolayer was fluorescent after five minutes
same,uptake into Caco-2 cells in suspension (flow cytometry),Caco-2 cells,"r9 being more effective than r7, which was more effective than r5"
"NCCCC[C@@H](NC(=O)[C@@H](CCCCN)NC(=O)[C@@H](CCCCN)NC(=O)[C@@H](CCCCN)NC(=O)[C@@H](CCCCN)NC(=O)[C@@H](CCCCN)NC(=O)[C@@H](CCCCN)NC(=O)CCCCCNC(=S)Nc1ccc2c(c1)C(=O)OC21c2ccc(O)cc2Oc2cc(O)ccc21)C(N)=O [Fl aca k7, reference compound] ({FITC-Ahx}-[dK][dK][dK][dK][dK][dK][dK]-NH2)",uptake into Caco-2 cells in suspension (flow cytometry),Caco-2 cells,All the polymers of arginine entered cells more effectively than the nonamers of lysine
C/C=C/C[C@@H](C)[C@@H](OC(=O)CN(Cc1ccccc1)C(=O)CNCC(=O)N[C@H](CCCNC(=N)N)C(=O)N[C@H](CCCNC(=N)N)C(=O)N[C@H](CCCNC(=N)N)C(=O)N[C@H](CCCNC(=N)N)C(=O)N[C@H](CCCNC(=N)N)C(=O)N[C@H](CCCNC(=N)N)C(=O)N[C@H](CCCNC(=N)N)C(=O)O)[C@H]1C(=O)N[C@@H](CC)C(=O)N(C)CC(=O)N(C)[C@@H](CC(C)C)C(=O)N[C@@H](C(C)C)C(=O)N(C)[C@@H](CC(C)C)C(=O)N[C@@H](C)C(=O)N[C@H](C)C(=O)N(C)[C@@H](CC(C)C)C(=O)N(C)[C@@H](CC(C)C)C(=O)N(C)[C@@H](C(C)C)C(=O)N1C [CGC1072],half-life,[3]; PBS pH 7.4 (37° C. where stated),approximately ninety
same,half-life,"[3]; buffer, PBS, pH 7.4 at 37° C., read-out: half life (converted)",1.5 h
"O=C(O)CCCC[C@@H]1SC[C@@H]2NC(=O)N[C@@H]21 [biotin, reference compound]",penetration into skin (streptavidin staining),skin of nude mice,no staining was apparent
same,penetration into skin,skin of Balb/C mice,no staining was apparent
same,penetration into human skin,[4],no staining was apparent
"N=C(N)NCCC[C@H](NC(=O)[C@H](CCCNC(=N)N)NC(=O)[C@H](CCCNC(=N)N)NC(=O)[C@H](CCCNC(=N)N)NC(=O)[C@H](CCCNC(=N)N)NC(=O)CCCCCNC(=S)Nc1ccc2c(c1)C(=O)OC21c2ccc(O)cc2Oc2cc(O)ccc21)C(N)=O [R5, F1-ahx-RRRRR] ({FITC-Ahx}-RRRRR-NH2)",uptake into Caco-2 cells in suspension (flow cytometry),Caco-2 cells,"r9 being more effective than r7, which was more effective than r5"
"N=C(N)NCCC[C@H](NC(=O)[C@H](CCCNC(=N)N)NC(=O)[C@H](CCCNC(=N)N)NC(=O)[C@H](CCCNC(=N)N)NC(=O)[C@H](CCCNC(=N)N)NC(=O)[C@H](CCCNC(=N)N)NC(=O)[C@H](CCCNC(=N)N)NC(=O)CCCCCNC(=S)Nc1ccc2c(c1)C(=O)OC21c2ccc(O)cc2Oc2cc(O)ccc21)C(N)=O [R7, F1-ahx-RRRRRRR]",uptake into Caco-2 cells in suspension (flow cytometry),Caco-2 cells,"r9 being more effective than r7, which was more effective than r5"
CC(=O)O[C@H]1C(=O)[C@@]2(C)[C@H]([C@H](OC(=O)c3ccccc3)[C@]3(O)C[C@H](OC(=O)[C@H](OC(=O)NCCCC[C@H](NC(=O)[C@@H](CCCNC(=N)N)NC(=O)[C@@H](CCCNC(=N)N)NC(=O)[C@@H](CCCNC(=N)N)NC(=O)[C@@H](CCCNC(=N)N)NC(=O)[C@@H](CCCNC(=N)N)NC(=O)CCCCCNC(=O)CCCC[C@@H]4SC[C@@H]5NC(=O)N[C@@H]54)C(N)=O)[C@@H](NC(=O)c4ccccc4)c4ccccc4)C(C)=C1C3(C)C)[C@]1(OC(C)=O)CO[C@@H]1C[C@@H]2O [B-aca-r5-K-taxol],penetration of drug conjugates into skin,skin of nude mice,very little uptake was seen
CC(=O)O[C@H]1C(=O)[C@@]2(C)[C@H]([C@H](OC(=O)c3ccccc3)[C@]3(O)C[C@H](OC(=O)[C@H](OC(=O)NCCCC[C@H](NC(=O)[C@@H](CCCNC(=N)N)NC(=O)[C@@H](CCCNC(=N)N)NC(=O)[C@@H](CCCNC(=N)N)NC(=O)[C@@H](CCCNC(=N)N)NC(=O)[C@@H](CCCNC(=N)N)NC(=O)[C@@H](CCCNC(=N)N)NC(=O)[C@@H](CCCNC(=N)N)NC(=O)CCCCCNC(=O)CCCC[C@@H]4SC[C@@H]5NC(=O)N[C@@H]54)C(N)=O)[C@@H](NC(=O)c4ccccc4)c4ccccc4)C(C)=C1C3(C)C)[C@]1(OC(C)=O)CO[C@@H]1C[C@@H]2O [B-aca-r7-K-taxol],penetration of drug conjugates into skin,skin of nude mice,effectively entered into and across the epidermis and into the dermis of the skin of nude mice
N=C(N)NCCC[C@@H](NC(=O)[C@@H](CCCNC(=N)N)NC(=O)[C@@H](CCCNC(=N)N)NC(=O)[C@@H](CCCNC(=N)N)NC(=O)[C@@H](CCCNC(=N)N)NC(=O)[C@@H](CCCNC(=N)N)NC(=O)[C@@H](CCCNC(=N)N)NC(=O)CCCCCNC(=O)CCCC[C@@H]1SC[C@@H]2NC(=O)N[C@@H]21)C(N)=O [Biotinylated arginine heptamer],penetration into skin (streptavidin staining),skin of nude mice,crossed into and across the epidermis and into the dermis
same,penetration into skin,skin of Balb/C mice,crossed into and across the epidermis and into the dermis
same,penetration into human skin,[4],crossed into and across the epidermis and into the dermis of the human skin
